Laboratory results from PMC9863297, “Intermolecular Interactions of Edaravone in Aqueous Solutions of Ethaline and Glyceline Inferred from Experiments and Quantum Chemistry Computations” (Molecules, 2023).
Read-outs that look alike come from different tables or passages of the source.

Experiment: Edaravone solubility, slurry/shake-flask method with spectrophotometric determination at 243 nm
Format: physicochemical
Conditions: for solubility at 24 h: thermodynamic from solid, read-out: cE solubility concentration; for mole fraction solubility advantage of 1:2 composition over unimolar composition: DES involving ethylene glycol; for volume of saturated solution containing the recommended 60 mg: solubility at 298.15 K
Experimental: The first step in obtaining a calibration curve was the preparation of a stock solution of edaravone with a concentration of 2.3 mg/mL. This initial solution was successfully diluted in 10 mL volumetric flasks with methanol and the obtained solutions with decreasing concentrations were measured spectrophotometrically. […] Three separate curves were obtained, and the final curve resulted from averaging. […] The limits of detection (LOD) and quantification (LOQ) were calculated as 5.899∙10^−4 mg/mL and 1.770∙10^−3 mg/mL, respectively.
All of the studied deep eutectic solvents included choline chloride, while the second constituent was either glycerol or ethylene glycol. In order to prepare a DES formulation, choline chloride was mixed with the second compound in different molar ratios in sealed test tubes and placed in a water bath at 363.15 K until the formation of a uniform solution. The obtained DES were either used in their neat form or water was added to them in different proportions in order to form binary systems.
During the next stage, edaravone was added in excess amounts to the test tubes containing both neat DES and binary mixtures, which enabled us to obtain its saturated solutions. Samples prepared in such a manner were placed in an Orbital Shaker Incubator ES-20/60 from Biosan (Riga, Latvia) and incubated for 24 h at different temperatures, namely 298.15 K, 303.15 K, 308.15 K and 313.15 K. The temperature adjustment accuracy was 0.1 K and its variability in a 24 h cycle was ±0.5 K. Apart from heating, all of the samples were mixed at 60 rev/min. The increased viscosity and density of DES systems required the samples to be centrifuged at 1000 rev/min for 5 min with the use of EBA 20 centrifuge from Hettich (Tuttlingen, Germany) enabling the undissolved precipitate to remain on the bottom of the test tubes. Next, the samples were filtered using a syringe equipped with a PTFE syringe filer with 0.22 µm pore size. In order to avoid precipitation, the test tubes, syringes and filters were initially heated at a temperature equal to the one of the handled samples. Finally, small amounts of the obtained filtrate were transferred to test tubes filled with methanol and the diluted samples were measured spectrophotometrically. Additionally, for the determination of the mole fractions of edaravone, the density of the samples was measured by weighing a fixed volume of the solution in 10 mL volumetric flasks.
For determining the solubility of edaravone in the studied systems, the samples prepared, as described above, were measured spectrophotometrically using an A360 spectrophotometer from AOE Instruments (Shanghai, China). The spectra were recorded in the 190 nm to 500 nm wavelength range and 1 nm resolution. Methanol was used for the initial calibration of the spectrophotometer and for the dilution of the measured samples, which was conducted in order for the absorbance values to remain below 2.5. The absorbance values at 243 nm were taken into account and based on the calibration curve prepared earlier, the concentration of edaravone in the samples was determined, followed by its mole fractions. The values were averaged from three separate measurements.

solubility at 24 h (40 °C, aqueous with cosolvent or surfactant or cyclodextrin, water + GLE (ChCl:GL 1:2), x*GLE = 0.6, 313.15 K): 692 mg/mL | solubility at 24 h (40 °C, aqueous with cosolvent or surfactant or cyclodextrin, water + GLE (ChCl:GL 1:2), x*GLE = 0.8, 313.15 K): 602 mg/mL | solubility at 24 h (40 °C, organic solvent or mixture, neat DES choline chloride + glycerol (GLE) 1:1 molar ratio, 313.15 K): 398 mg/mL | solubility at 24 h (40 °C, organic solvent or mixture, neat DES choline chloride + glycerol (GLE) 1:2 molar ratio (x*GLE = 1.0), 313.15 K): 492 mg/mL | solubility at 24 h (40 °C, organic solvent or mixture, neat DES choline chloride + glycerol (GLE) 1:4 molar ratio, 313.15 K): 470 mg/mL | mole fraction solubility advantage of 1:2 composition over unimolar composition (298.15 K): 53% | mole fraction solubility advantage of 1:2 composition over unimolar composition (313.15 K): 21% | solubility at 24 h (deep eutectic solvent + water binary mixture, 25 °C, aqueous with cosolvent or surfactant or cyclodextrin, water + ETA (ChCl:EG 1:2), x*ETA = 0.8, 298.15 K): 363 mg/mL | solubility at 24 h (deep eutectic solvent + water binary mixture, 30 °C, aqueous with cosolvent or surfactant or cyclodextrin, water + ETA (ChCl:EG 1:2), x*ETA = 0.6, 303.15 K): 561 mg/mL | solubility at 24 h (deep eutectic solvent + water binary mixture, 30 °C, aqueous with cosolvent or surfactant or cyclodextrin, water + ETA (ChCl:EG 1:2), x*ETA = 0.8, 303.15 K): 452 mg/mL | solubility at 24 h (deep eutectic solvent + water binary mixture, 35 °C, aqueous with cosolvent or surfactant or cyclodextrin, water + ETA (ChCl:EG 1:2), x*ETA = 0.5, 308.15 K): 664 mg/mL | solubility at 24 h (deep eutectic solvent + water binary mixture, 35 °C, aqueous with cosolvent or surfactant or cyclodextrin, water + ETA (ChCl:EG 1:2), x*ETA = 0.6, 308.15 K): 670 mg/mL | solubility at 24 h (deep eutectic solvent + water binary mixture, 35 °C, aqueous with cosolvent or surfactant or cyclodextrin, water + ETA (ChCl:EG 1:2), x*ETA = 0.8, 308.15 K): 561 mg/mL | solubility at 24 h (deep eutectic solvent + water binary mixture, 40 °C, aqueous with cosolvent or surfactant or cyclodextrin, water + ETA (ChCl:EG 1:2), x*ETA = 0.5, 313.15 K): 744 mg/mL | solubility at 24 h (deep eutectic solvent + water binary mixture, 40 °C, aqueous with cosolvent or surfactant or cyclodextrin, water + ETA (ChCl:EG 1:2), x*ETA = 0.6, 313.15 K): 753 mg/mL | solubility at 24 h (deep eutectic solvent + water binary mixture, 40 °C, aqueous with cosolvent or surfactant or cyclodextrin, water + ETA (ChCl:EG 1:2), x*ETA = 0.8, 313.15 K): 655 mg/mL | solubility increase in optimal binary composition compared to neat DES (glycerol-containing systems, x*DES = 0.6, average): 28% | volume of saturated solution containing the recommended 60 mg (neat DES ETA): 0.20 mL | volume of saturated solution containing the recommended 60 mg (neat DES GLE): 0.32 mL | xE mole fraction solubility (neat DES choline chloride + ethylene glycol (ETA) 1:1 molar ratio, 298.15 K): 1031.93 (±62.91) mole fraction ∙10^4 | xE mole fraction solubility (neat DES choline chloride + ethylene glycol (ETA) 1:1 molar ratio, 303.15 K): 1400.98 (±40.74) mole fraction ∙10^4 | xE mole fraction solubility (neat DES choline chloride + ethylene glycol (ETA) 1:1 molar ratio, 308.15 K): 2089.82 (±49.36) mole fraction ∙10^4 | xE mole fraction solubility (neat DES choline chloride + ethylene glycol (ETA) 1:1 molar ratio, 313.15 K): 2966.24 (±120.59) mole fraction ∙10^4 | xE mole fraction solubility (neat DES choline chloride + ethylene glycol (ETA) 1:2 molar ratio (x*ETA = 1.0), 298.15 K): 1579.47 (±70.73) mole fraction ∙10^4 | xE mole fraction solubility (neat DES choline chloride + ethylene glycol (ETA) 1:2 molar ratio (x*ETA = 1.0), 303.15 K): 2135.68 (±42.46) mole fraction ∙10^4 | xE mole fraction solubility (neat DES choline chloride + ethylene glycol (ETA) 1:2 molar ratio (x*ETA = 1.0), 308.15 K): 2878.22 (±133.85) mole fraction ∙10^4 | xE mole fraction solubility (neat DES choline chloride + ethylene glycol (ETA) 1:2 molar ratio (x*ETA = 1.0), 313.15 K): 3602.21 (±117.41) mole fraction ∙10^4 | xE mole fraction solubility (neat DES choline chloride + ethylene glycol (ETA) 1:4 molar ratio, 298.15 K): 1306.68 (±55.75) mole fraction ∙10^4 | xE mole fraction solubility (neat DES choline chloride + ethylene glycol (ETA) 1:4 molar ratio, 303.15 K): 1677.66 (±47.52) mole fraction ∙10^4 | xE mole fraction solubility (neat DES choline chloride + ethylene glycol (ETA) 1:4 molar ratio, 308.15 K): 2434.99 (±114.12) mole fraction ∙10^4 | xE mole fraction solubility (neat DES choline chloride + ethylene glycol (ETA) 1:4 molar ratio, 313.15 K): 3428.20 (±105.69) mole fraction ∙10^4 | xE mole fraction solubility (neat DES choline chloride + glycerol (GLE) 1:1 molar ratio, 298.15 K): 786.83 (±3.34) mole fraction ∙10^4 | xE mole fraction solubility (neat DES choline chloride + glycerol (GLE) 1:1 molar ratio, 303.15 K): 1173.65 (±39.25) mole fraction ∙10^4 | xE mole fraction solubility (neat DES choline chloride + glycerol (GLE) 1:1 molar ratio, 308.15 K): 1615.31 (±40.69) mole fraction ∙10^4 | xE mole fraction solubility (neat DES choline chloride + glycerol (GLE) 1:1 molar ratio, 313.15 K): 2429.30 (±72.71) mole fraction ∙10^4 | xE mole fraction solubility (neat DES choline chloride + glycerol (GLE) 1:2 molar ratio (x*GLE = 1.0), 298.15 K): 1052.85 (±68.85) mole fraction ∙10^4
Compound: CC1=NN(c2ccccc2)C(=O)C1 [edaravone, 5-methyl-2-phenyl-4H-pyrazol-3-one]
